Data set [1] has as its system Eg5 mRNA in HeLa-S3 cells. Put plainly: Eg5 bDNA assay of transfected siRNAs. Format: cell-based, human. Conditions: Lipofectamine 2000 transfection, 24 hours. The source says:
To evaluate whether additions or alterations of siRNAs by digoxygenin alters its biological activity, we performed in vitro assays in cell culture. For that, we chose to assess the activity of siRNA that inactivates the mRNA of Eg5. The direct effect of Eg5 siRNA activity is down-regulation of its cognate mRNA. This can be quantified by bDNA (branched DNA) assays, which detect the amount of specific mRNAs in cells (Burris et al., 1999, Molecular Endocrinology). To perform these assays, we seeded a defined number of the respective cell type into 96-well plates and allowed them to attach over night. The next day cells were transfected with desired amounts of a certain siRNA or treated with the agent whose effect on the mRNA-level should be analysed. After 24 hours the QuantiGene kit protocol was followed according to the instructions of the manufacturer (Affymetrix) in order to quantify the mRNA levels. Briefly, the cell lysates were transferred to a capture plate in the presence of a gene-specific probe set and then incubated at 53° C. over night. Wells were washed. They were then incubated at 53° C. sequentially with an Amplifier and an alkaline phosphatase-linked label probe with a wash between the incubations. After a final wash, the luminescent alkaline phosphatase substrate dioxitane was added and was incubated for 30 min at 53° C. The luminescence was detected using a InfiniteF200 luminescence reader (Tecan Austria, Gröding). The biological activity of siRNAs that target Eg5 can not only be determined by bDNA analyses, but also by the phenotype that is caused by Eg5 mRNA depletion in growing cells. Eg5 is a motor protein that belongs to the kinesin-like protein family. Eg5, also known as KSP (kinesin spindle protein), is essential for the formation of the bipolar mitotic spindle and is required for the proper separation of the spindle poles. Depletion of Eg5 leads to the formation of characteristic monoaster spindles and activates the spindle checkpoint. This causes a mitotic arrest that ultimately leads to apoptosis (Tao et. al., Molecular and cellular biology. 2007 January; 27(2):689-98) (Tao W. et. al., Cancer Cell. 2005; 8:49-59.) Because of that, inactivation of Eg5 by siRNA mediates in many cases a cytotoxic phenotype to cultured cells. Therefore, the biological activity of Eg5 siRNA can be analyzed by monitoring the number of living cells.
Table 7 summarizes the results of the bDNA and cytotox assays that we performed to compare the biological activities of transfected siRNAs with that of their transfected digoxygenated counterparts. For the bDNA assays, we seeded HeLa-S3 cells into 96-well plates and allowed them to attach over night. The next day cells were transfected with the indicated amounts of siRNA using the Lipofectamine™ 2000 transfection reagent according to the instructions of the manufacturer (Invitrogen). After 24 hours the QuantiGene kit protocol was followed according to the instructions of the manufacturer (Affymetrix) in order to quantify the mRNA levels of the Eg5 mRNA.

The test system of data set [2] is KPL-4 cells. Description: Cytotox assay (CellTiter-Glo) of transfected siRNAs. Format: cell-based, human. Conditions: Dharmafect transfection, 48 hours. On the procedure: To measure the number of living cells the CellTiter-Glo Luminescent Cell Viability Assay (Promega Madison, Wis.) assay was applied according to the protocol supplied by the manufacturer. In this assay the cells are lysed and a luminescent signal proportional to the ATP amount is generated. The ATP amount is directly proportional to the number of living cells. The 96 well plates were then analyzed in a InfiniteF200 luminescence reader (Tecan Austria, Gröding).
For the cytotox assays, KPL-4 cells were seeded at a density of 7000 cells per well in 96 well plates. The cells were incubated for 24 hours at 37° C., 5% CO2 and 85% humidity in RPMI with 10% FCS and L-Glutamine. The next day cells were transfected with the indicated amounts of siRNA using the Dharmafect transfection reagent according to the instructions of the manufacturer (Dharmacon). After 48 hours the cells were treated with the CellTiter-Glo-assay reagent according to the manufacturers instructions.
For orientation: ATP-based viability assays read luminescence as a measure of living cells.

Data set [3] in a line: Excitation and emission spectra of Cy5, Dig-Cy5 and complex. In kind it is physicochemical. From the text: To evaluate whether digoxygenation of Cy5 alters its fluorescence features, we compared the excitation and emission spectra of Cy5 and compared it with the spectra of the newly generated Dig-Cy5 and with Dig-Cy5 within a complex with bispecific antibodies. […] We conclude that Dig-Cy5 and -complexes can be applied for antibody-mediated targeting and in vivo imaging.

Data set [4] has as its target Eg5-siRNA-DIG. Put plainly: SPR (Biacore) binding to mono-digoxygenated siRNA. As to conditions: 25° C. A general note: SPR reads the build-up and loss of mass on a sensor chip optically.
Description: (§2) For that, binding properties of the recombinant <Dig> derivatives were analyzed by surface plasmon resonance (SPR) technology using a Biacore T100 or Biacore 3000 instrument (GE Healthcare Bio-Sciences AB, Uppsala). […] To perform the binding studies capturing anti-human IgG antibody was immobilized on the surface of a CM5 biosensor chip using amine-coupling chemistry. Flow cells were activated with a 1:1 mixture of 0.1 M N-hydroxysuccinimide and 0.1 M 3-(N,N-dimethylamino)propyl-N-ethylcarbodiimide at a flow rate of 5 μl/min. […] A reference control flow cell was treated in the same way but with vehicle buffers only instead of the capturing antibody. Surfaces were blocked with an injection of 1 M ethanolamine/HCl pH 8.5. […]
(§3) Anti-mouse IgG antibody was immobilized on the surface of a CM5 biosensor chip in the same fashion as described above. […] The samples to be analyzed were diluted in HBS-P (10 mM HEPES, pH 7.4, 150 mM NaCl, 0.005% Surfactant P20) and injected at a flow rate of 5 μl/min. […] Signals were detected at a rate of one signal per second.
(§4) The samples to be analyzed were diluted in HBS-P and injected at a flow rate of 5 μl/min. […]
Data set [5] concerns the target Eg5-siRNA-(2×)DIG. Put plainly: SPR (Biacore) binding to bi-digoxygenated siRNA. As to conditions: 25° C., read-out: KD, binding of siRNA-(2x)DIG.
Description: as §2, §3, §4
The test system of data set [6] is DIG-Myoglobin. Put plainly: SPR binding to mono-digoxygenated protein DIG-myoglobin. Here is the method:
(§1) For that, binding properties of the recombinant <Dig> derivatives were analyzed by surface plasmon resonance (SPR) technology using a Biacore T100 or Biacore 3000 instrument (GE Healthcare Bio-Sciences AB, Uppsala). This system is well established for the study of molecule interactions. It allows a continuous real-time monitoring of ligand/analyte bindings and thus the determination of association rate constants (ka), dissociation rate constants (kd), and equilibrium constants (KD) in various assay settings. SPR-technology is based on the measurement of the refractive index close to the surface of a gold coated biosensor chip. Changes in the refractive index indicate mass changes on the surface caused by the interaction of immobilized ligand with analyte injected in solution. If molecules bind to immobilized ligand on the surface the mass increases, in case of dissociation the mass decreases. To perform the binding studies capturing anti-human IgG antibody was immobilized on the surface of a CM5 biosensor chip using amine-coupling chemistry. Flow cells were activated with a 1:1 mixture of 0.1 M N-hydroxysuccinimide and 0.1 M 3-(N,N-dimethylamino)propyl-N-ethylcarbodiimide at a flow rate of 5 μl/min. […] A reference control flow cell was treated in the same way but with vehicle buffers only instead of the capturing antibody. Surfaces were blocked with an injection of 1 M ethanolamine/HCl pH 8.5. To compare the binding of the humanized protein variants with that of the murine <Dig> IgG from the original hybridoma 19-11, capturing anti-mouse IgG antibody was immobilized on the surface of a CM5 biosensor chip in the same fashion as described above for the anti-human IgG antibody. To evaluate the functionality of the recombinant <Dig> derivatives, binding of the recombinant hu<Dig> modules, incl. (i) humanized IgG, (ii) fusion proteins harboring hu<Dig> scFv or (iii) disulfide-stabilized scFvs was assayed with different digoxygenated antigens The resulting binding affinities were compared to the binding of the murine ‘wildtype’ DIG-IgG from which the recombinant humanized modules were derived.
Another SPR study was performed in which the binding affinity of <DIG>-hu2, IGF1R-DIG and <DIG> M-19-11 was compared in terms of binding to the mono-digoxygenated protein DIG-myoglobin.

Data set [7] concerns the target DIG-siRNA2349. Description: SPR binding to DIG-siRNA2349. Conditions: analyte DIG-siRNA2349; replicate lines; listed as <DIG>M-19-11. On the procedure:
as §1, with “derived. […]” for “derived.”

[8] abbreviates: analyte DIG-Myoglobin, replicate lines, listed as <DIG>M-19-11.

Where “and” joins values, the source holds several entries; their conditions need not be identical. Identical values can stand only once. {Dig} = digoxigenin coupled through a C6 amino linker; {Cy5} = Cy5 fluorescent dye label; d = 2'-deoxy (DNA); m = 2'-O-methyl; r = 2'-OH (RNA)

By IC50 is commonly meant the point on the concentration scale where inhibition reaches its midpoint. Read a low IC50 as inhibition by little substance. Turning to “Luciferase siRNA: control siRNA, Seq. ID NO. 22/29 (chain 1 CUUACGCUGAGUACUUCGATT; chain 2 UCGAAGUACUCAGCGUAAGTT; chain 1: DNA at T, 2'-O-methyl at CU, RNA at AG, backbone not given here; chain 2: sugars from the 5' end rrrrrrmrrrmrrrrmrrrdd, backbone not given here) [reference compound]”, in data set [1], the IC50 is greater than 100 nM.
With “Dig-Eg5-Cy5 siRNA: digoxygenated Cy5-labeled Eg5 siRNA, Seq. ID NO. 27/34 (chain 1 CUGAAGACCUGAAGACAAUUU; chain 2 AUUGUCUUCAGGUCUUCAGUU; chain 1: RNA, 5' {Cy5}, 3' {Dig}, backbone not given here; chain 2: RNA, backbone not given here)”, the half-maximal inhibitory concentration (IC50) in data set [1] turned out to be 0.013 nM; in data set [2], 215 nM.
Regarding Cy5 [reference compound], in data set [3], the “Emission wavelength (max.)” value is given as “at 670 nm” and the Excitation wavelength is reported as 575-605 nm.
“Dig-Eg5 siRNA: mono-digoxygenated Eg5 siRNA, Seq. ID NO. 25/32 (chain 1 CUGAAGACCUGAAGACAAUUU; chain 2 AUUGUCUUCAGGUCUUCAGUU; chain 1: 2'-O-methyl at CU, RNA at AG, 3' {Dig}, backbone not given here; chain 2: RNA, backbone not given here; further chemistry not fully specified)”: the IC50 in data set [1] worked out at 0.035 nM; in data set [2] it was 4 nM.
With “Eg5 siRNA: siRNA targeting Eg5, Seq. ID NO. 24/31 (chain 1 CUGAAGACCUGAAGACAAUUU; chain 2 AUUGUCUUCAGGUCUUCAGUU; chain 1: sugars from the 5' end r18 m3, backbone not given here; chain 2: RNA, backbone not given here)”, the IC50 in data set [1] was 0.016 nM; in data set [2], 28 nM.
In turn, “Dig-Luciferase siRNA: digoxygenated luciferase siRNA, Seq. ID NO. 23/30 (chain 1 CUUACGCUGAGUACUUCGATT; chain 2 UCGAAGUACUCAGCGUAAGTT; chain 1: DNA at T, 2'-O-methyl at CU, RNA at AG, 3' {Dig}, backbone not given here; chain 2: sugars from the 5' end rrrrrrmrrrmrrrrmrrrdd, backbone not given here; further chemistry not fully specified)” came in with an IC50 in data set [1] greater than 100 nM.

B1: murine DIG-IgG 19-11: hybridoma clone 19-11 derived murine anti-digoxigenin IgG1 kappa; VL Seq. ID. NO. 1, VH Seq. ID. NO. 2 (antibody, listed as Mus musculus, V domains shown)
VH: MNFVLSLIFLALILKGVQCEVQLVESGGGLVKPGGSLKLSCAVSGFTFSDYAMSWIRQTPENRLEWVASINIGATYAYYPDSVKGRFTISRDNAKNTLFLQMSSLGSEDTAMYYCARPGSPYEYDKAYYSMAYWGPGTSVTVSS
VL: MSSAQFLGLLLLCFQGTRCDVQMTQSTSSLSASLGDRVTISCRASQDIKNYLNWYQQKPGGTVKLLIYYSSTLLSGVPSRFSGRGSGTDFSLTITNLEREDIATYFCQQSITLPPTFGGGTKLEIK
notes: hybridoma clone 19-11 derived murine anti-digoxigenin IgG1 kappa; ID; NO
What is called Kd is the equilibrium constant for the complex coming apart. As to B1, the Kd in data set [4] was 0.269 nM; in data set [5], 0.017 nM; in data set [7], 0.276 nM and 0.371 nM. In data set [6] (SPR), the “affinity to DIG-Myo compared with <DIG>-hu2 and disulfide-stabilized <DIG> scFv” value is recorded as “about a hundred fold better”. For the same molecule, the ka in data set [6] (setting [8]) was 1.75e+06 M⁻¹ s⁻¹ and 2.28e+06 M⁻¹ s⁻¹; in data set [7] it was 3.27e+06 M⁻¹ s⁻¹ and 2.26e+06 M⁻¹ s⁻¹. The kd in data set [6] (setting [8]) is 0.000676 s⁻¹ and 0.000675 s⁻¹; in data set [7] it was 0.000903 s⁻¹ and 0.000838 s⁻¹.

(Values after patent US9050375B2, “Bi-specific digoxigenin binding antibodies” (priority 2009, dated 2015).)
